Measured values: paper PMC9502272, “A Metabolomics Approach for Predicting OATP1B-Type Transporter-Mediated Drug–Drug Interaction Liabilities” (Pharmaceutics, 2022)
Structures can show the parent of a compound that is named as a salt.

Target: T1, Oatp1b2 (Mus musculus, UniProt Q9JJL3)
T1 sequence (Q9JJL3 1-689): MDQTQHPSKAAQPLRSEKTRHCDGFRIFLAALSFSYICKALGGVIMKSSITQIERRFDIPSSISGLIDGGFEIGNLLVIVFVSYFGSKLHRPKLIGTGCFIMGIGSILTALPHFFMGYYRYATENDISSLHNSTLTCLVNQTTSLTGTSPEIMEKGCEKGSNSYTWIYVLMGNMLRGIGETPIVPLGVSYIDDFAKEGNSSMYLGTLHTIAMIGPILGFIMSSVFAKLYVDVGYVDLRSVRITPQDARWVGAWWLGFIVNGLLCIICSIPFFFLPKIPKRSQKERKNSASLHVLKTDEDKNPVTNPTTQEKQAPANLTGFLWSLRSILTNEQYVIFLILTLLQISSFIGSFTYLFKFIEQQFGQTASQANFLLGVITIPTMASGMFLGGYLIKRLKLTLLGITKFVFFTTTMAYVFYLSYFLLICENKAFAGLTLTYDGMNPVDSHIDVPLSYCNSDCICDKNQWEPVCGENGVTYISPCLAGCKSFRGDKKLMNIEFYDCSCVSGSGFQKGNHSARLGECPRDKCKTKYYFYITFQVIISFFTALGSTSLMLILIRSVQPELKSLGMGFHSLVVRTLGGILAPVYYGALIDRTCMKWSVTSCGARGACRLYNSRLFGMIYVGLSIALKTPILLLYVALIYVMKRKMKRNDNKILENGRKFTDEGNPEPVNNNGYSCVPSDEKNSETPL
Assay: Untargeted metabolomics of plasma from untreated wild-type and Oatp1b2(−/−) mice
Conditions: for Fold of Change KO/WT: plasma of untreated Oatp1b2-deficient (KO) vs wild-type (WT) mice, semi-quantitative, positive = higher in KO, n = 6 per group; for Mean value KO: plasma of untreated Oatp1b2-deficient mice; for Mean value KO / Mean value WT: raw area counts rescaled to median = 1; for Mean value WT: plasma of untreated wild-type mice
Description: For all experiments, age- and sex-matched mice (8–12 weeks old) were used. […] Mice with a deficiency of Oatp1b2 (Oatp1b2(−/−) mice), the single murine orthologue of OATP1B1 and OATP1B3 in humans, on a DBA/1LacJ background were kindly provided by Drs. Richard B. Kim (Western University, London, Ontario, Canada) and Jeffrey L. Stock (Pfizer, Groton, CT, USA).
Plasma samples from untreated wild-type mice and Oatp1b2(−/−) mice were analyzed for structurally named and unknown molecules using a non-targeted semi-quantitative liquid chromatography-tandem mass spectrometry (LC-MS/MS) and gas chromatography-mass spectrometry platforms (Metabolon, Durham, NC, USA). Compounds were identified by comparison with library entries of purified standards or recurrent unknown entities.

Compound	Fold of Change KO/WT	Mean value KO	Mean value WT
COC1=C(O)[C@@H]([C@@H](O)CO)OC1=O [2-O-methylascorbic acid]	1.16	1.08	.927
CCCCCCCCCCCCCC/C=C\OC[C@H](COP(=O)([O-])OCC[N+](C)(C)C)OC(=O)CCCCCCCCCCCCCCC [1-(1-enyl-palmitoyl)-2-palmitoyl-GPC (P-16:0/16:0)]	1.24	1.14	.919
chenodeoxycholic acid sulfate (1)	6.41	1.02	.160
CC(C(=O)O)c1ccc(O)cc1 (stereo not drawn) [2-(4-hydroxyphenyl)propionate]	1.30	1.16	.895
O=S(=O)(O)Oc1ccccc1 [phenol sulfate]	1.40	1.23	.879
CCCCC/C=C\C/C=C\C/C=C\C/C=C\CCCC(=O)O[C@H](COC(=O)CCCCCCC/C=C\C/C=C\CCCCC)COP(=O)([O-])OCC[N+](C)(C)C [1-linoleoyl-2-arachidonoyl-GPC (18:2/20:4n6)]	1.36	1.15	.846
CCCCC/C=C\C/C=C\C/C=C\C/C=C\CCCC(=O)O[C@H](CO/C=C\CCCCCCCCCCCCCC)COP(=O)(O)OCCN [1-(1-enyl-palmitoyl)-2-arachidonoyl-GPE (P-16:0/20:4)]	1.34	1.13	.839
CCCCCCCCCCCCCCCCCC(=O)OC[C@@H](O)COP(=O)(O)OCCN [1-stearoyl-GPE (18:0)]	1.34	1.16	.867
Cc1ccc(O[C@@H]2O[C@H](C(=O)O)[C@@H](O)[C@H](O)[C@H]2O)cc1 [p-cresol glucuronide]	11.8	5.92	.503
CCCCCCCC/C=C\CCCCCCCC(=O)OC[C@@H](O)COP(=O)(O)OCCN [1-oleoyl-GPE (18:1)]	2.05	1.30	.634
CC/C=C\C/C=C\C/C=C\C/C=C\C/C=C\C/C=C\CCC(=O)O[C@H](COC(=O)CCCCCCC/C=C\CCCCCCCC)COP(=O)([O-])OCC[N+](C)(C)C [1-oleoyl-2-docosahexaenoyl-GPC (18:1/22:6)]	1.34	1.17	.874
CC(O)(CCO)CC(=O)O (stereo not drawn) [mevalonate]	1.24	1.15	.925
CCCCC/C=C\C/C=C\C/C=C\C/C=C\CCCC(=O)O[C@H](CO/C=C\CCCCCCCCCCCCCCCC)COP(=O)(O)OCCN [1-(1-enyl-stearoyl)-2-arachidonoyl-GPE (P-18:0/20:4)]	1.33	1.10	.828
COP(=O)(O)O [methylphosphate]	1.27	1.08	.848
O=C(O)[C@H]1O[C@@H](Oc2ccccc2)[C@H](O)[C@@H](O)[C@@H]1O [phenol glucuronide]	1.87	1.28	.684
CSC=CC(O)C(O)C(=O)O (stereo not drawn) [2,3-dihydroxy-5-methylthio-4-pentenoate (DMTPA)]	1.34	1.23	.915
CCCCC/C=C\C/C=C\C/C=C\C/C=C\CCCC(=O)OC[C@@H](O)COP(=O)(O)O [1-arachidonoyl-GPA (20:4)]	1.80	1.17	.652
CCCCCCCCCCCCCCC=COCC(O)COP(=O)([O-])OCC[N+](C)(C)C (stereo not drawn) [1-(1-enyl-palmitoyl)-GPC (P-16:0)]	1.59	1.26	.795
CCCCC/C=C\C/C=C\CCCCCCCC(=O)OC[C@@H](O)COP(=O)(O)OC1[C@H](O)[C@H](O)C(O)[C@H](O)[C@H]1O (stereo partly drawn) [1-linoleoyl-GPI (18:2)]	1.65	1.27	.765
Cc1ccc(OS(=O)(=O)O)c(N)c1 [2-amino-p-cresol sulfate]	4.28	1.86	.435
CCCCCCCC/C=C\CCCCCCCC(=O)OC[C@@H](O)COP(=O)(O)OC1[C@H](O)[C@H](O)C(O)[C@H](O)[C@H]1O (stereo partly drawn) [1-oleoyl-GPI (18:1)]	1.87	1.36	.729

Further lines, results first:

Fold of Change KO/WT	Mean value KO	Mean value WT	Compound
1.43	1.27	.885	eicosenamide (20:1)
1.43	0.970	.678	C[C@H](CCC(=O)O)[C@H]1CC[C@H]2[C@@H]3CC(=O)[C@@H]4C[C@H](O)CC[C@]4(C)[C@H]3CC[C@]12C [6-oxolithocholate]
1.25	1.10	.879	CCC(CO)C(=O)O (stereo not drawn) [3-hydroxy-2-ethylpropionate]
2.09	1.58	.756	tetradecadienedioate (C14:2-DC)
1.39	1.27	.917	nonadecenamide (19:1)
1.40	1.17	.835	CC(C)(O)CC(=O)O [beta-hydroxyisovalerate]
2.14	1.46	.685	CC(=O)Nc1ccc(C(=O)O)cc1 [4-acetamidobenzoate]
1.36	1.12	.819	CC(=O)Nc1ccn([C@@H]2O[C@H](CO)[C@@H](O)[C@H]2O)c(=O)n1 [N4-acetylcytidine]
1.77	1.28	.723	CCCCCCCCCCCCCCC(=O)O[C@H](CC(=O)[O-])C[N+](C)(C)C [pentadecanoylcarnitine (C15)]
1.22	1.08	.884	O=C1CC(C(=O)O)C(C(=O)O)O1 (stereo not drawn) [isocitric lactone]
3.45	1.82	.528	C[C@H](CCC(=O)NCCS(=O)(=O)O)[C@H]1CC[C@H]2[C@@H]3CC[C@@H]4C[C@H](O)CC[C@]4(C)[C@H]3C[C@H](O)[C@]12C [taurodeoxycholate]
1.19	1.09	.915	C[N+]1(C)CCCC[C@H]1C(=O)[O-] [homostachydrine]
2.58	1.62	.626	equol sulfate
1.24	1.09	.878	CC(=O)N[C@@H](Cc1cncn1C)C(=O)O [N-acetyl-3-methylhistidine]
4.07	2.16	.530	C[C@H](CCC(=O)O)[C@H]1CC[C@H]2[C@@H]3[C@@H](O)C[C@@H]4C[C@H](O)CC[C@]4(C)[C@H]3CC[C@]12C [ursodeoxycholate]
1.47	1.28	.868	Cc1ncc(CO)c(C=O)c1O [pyridoxal]
1.49	1.19	.800	CCCCCCCCCCCCCCCCCC(N)=O [stearamide (18:0)]
1.12	1.05	.938	O=C(O)C1CCCCN1 (stereo not drawn) [pipecolate]
6.12	1.17	.191	C=CC1=C(C)/C(=C/c2[nH]c(Cc3[nH]c(/C=C4\NC(=O)C(C)=C4C=C)c(C)c3CCC(=O)O)c(CCC(=O)O)c2C)NC1=O [bilirubin (E,E)]
1.45	1.19	.826	CCCCCCCCCCCCCCCCC(N)=O [margaramide (17:0)]
1.44	1.20	.833	O=C(O)CCCCCCCCC(=O)O [sebacate (C10-DC)]
1.36	1.21	.889	CCCCCCCCCCCCCCCCCCCC(=O)OC(CC(=O)[O-])C[N+](C)(C)C (stereo not drawn) [arachidoylcarnitine (C20)]
1.40	1.31	.931	CC(=O)N[C@@H](CC[S+](C)[O-])C(=O)O (stereo partly drawn) [N-acetylmethionine sulfoxide]
1.77	1.42	.805	Cc1ncc(CO)c(CN)c1O [pyridoxamine]
